Experimental data taken from patent US6465461B1, “Triazine compounds for treatment of CNS disorders” (SmithKline Beecham Corporation, priority 1997, dated 2002).

Experiments:
male Han Wistar rats = assay: Rat maximal electroshock test (MES); assay type: in vivo; conditions: oral, 2 hr prior to test; for ED50: Rattus norvegicus, suspension in 0.25% methylcellulose, 200 mA, 200 millisec, read-out: MES ED50 (hind limb extension); for therapeutic index (ratio of the ataxia ED50 and MES ED50): rat
Method: For example, male Han Wistar rats (150-200 grms) were dosed orally with a suspension of the test compound in 0.25% methylcellulose 2 hr prior to test. A visual observation is carried out just prior to testing for the presence of ataxia. Using auricular electrodes a current of 200 mA, duration 200 millisec, is applied and the presence or absence of hind limb extension noted.

rat = assay: Rat intraplantar carrageenan model of hyperalgesia and inflammation; assay type: in vivo; conditions: oral; for ED50: Rattus norvegicus, 30 minutes prior to carrageenan (100 μl of 2% intraplantar), read at three hours, read-out: ED50 for inhibition of the carrageenan-induced reduction in weight bearing
Method: Three hours after intraplantar carrageenan administration (100 μl of 2%) in the rat there is a reduction in weight bearing on the inflamed paw and an increase in paw volume consistent with acute hyperalgesia and inflammation.

[1] = molecular target: recombinant human brain type IIA Na+ channel expressed in Chinese hamster ovary cells (Homo sapiens, UniProt Q99250); assay: Whole-cell voltage-clamp on voltage-gated sodium channels
Chain of recombinant human brain type IIA Na+ channel expressed in Chinese hamster ovary cells (Q99250 whole entry): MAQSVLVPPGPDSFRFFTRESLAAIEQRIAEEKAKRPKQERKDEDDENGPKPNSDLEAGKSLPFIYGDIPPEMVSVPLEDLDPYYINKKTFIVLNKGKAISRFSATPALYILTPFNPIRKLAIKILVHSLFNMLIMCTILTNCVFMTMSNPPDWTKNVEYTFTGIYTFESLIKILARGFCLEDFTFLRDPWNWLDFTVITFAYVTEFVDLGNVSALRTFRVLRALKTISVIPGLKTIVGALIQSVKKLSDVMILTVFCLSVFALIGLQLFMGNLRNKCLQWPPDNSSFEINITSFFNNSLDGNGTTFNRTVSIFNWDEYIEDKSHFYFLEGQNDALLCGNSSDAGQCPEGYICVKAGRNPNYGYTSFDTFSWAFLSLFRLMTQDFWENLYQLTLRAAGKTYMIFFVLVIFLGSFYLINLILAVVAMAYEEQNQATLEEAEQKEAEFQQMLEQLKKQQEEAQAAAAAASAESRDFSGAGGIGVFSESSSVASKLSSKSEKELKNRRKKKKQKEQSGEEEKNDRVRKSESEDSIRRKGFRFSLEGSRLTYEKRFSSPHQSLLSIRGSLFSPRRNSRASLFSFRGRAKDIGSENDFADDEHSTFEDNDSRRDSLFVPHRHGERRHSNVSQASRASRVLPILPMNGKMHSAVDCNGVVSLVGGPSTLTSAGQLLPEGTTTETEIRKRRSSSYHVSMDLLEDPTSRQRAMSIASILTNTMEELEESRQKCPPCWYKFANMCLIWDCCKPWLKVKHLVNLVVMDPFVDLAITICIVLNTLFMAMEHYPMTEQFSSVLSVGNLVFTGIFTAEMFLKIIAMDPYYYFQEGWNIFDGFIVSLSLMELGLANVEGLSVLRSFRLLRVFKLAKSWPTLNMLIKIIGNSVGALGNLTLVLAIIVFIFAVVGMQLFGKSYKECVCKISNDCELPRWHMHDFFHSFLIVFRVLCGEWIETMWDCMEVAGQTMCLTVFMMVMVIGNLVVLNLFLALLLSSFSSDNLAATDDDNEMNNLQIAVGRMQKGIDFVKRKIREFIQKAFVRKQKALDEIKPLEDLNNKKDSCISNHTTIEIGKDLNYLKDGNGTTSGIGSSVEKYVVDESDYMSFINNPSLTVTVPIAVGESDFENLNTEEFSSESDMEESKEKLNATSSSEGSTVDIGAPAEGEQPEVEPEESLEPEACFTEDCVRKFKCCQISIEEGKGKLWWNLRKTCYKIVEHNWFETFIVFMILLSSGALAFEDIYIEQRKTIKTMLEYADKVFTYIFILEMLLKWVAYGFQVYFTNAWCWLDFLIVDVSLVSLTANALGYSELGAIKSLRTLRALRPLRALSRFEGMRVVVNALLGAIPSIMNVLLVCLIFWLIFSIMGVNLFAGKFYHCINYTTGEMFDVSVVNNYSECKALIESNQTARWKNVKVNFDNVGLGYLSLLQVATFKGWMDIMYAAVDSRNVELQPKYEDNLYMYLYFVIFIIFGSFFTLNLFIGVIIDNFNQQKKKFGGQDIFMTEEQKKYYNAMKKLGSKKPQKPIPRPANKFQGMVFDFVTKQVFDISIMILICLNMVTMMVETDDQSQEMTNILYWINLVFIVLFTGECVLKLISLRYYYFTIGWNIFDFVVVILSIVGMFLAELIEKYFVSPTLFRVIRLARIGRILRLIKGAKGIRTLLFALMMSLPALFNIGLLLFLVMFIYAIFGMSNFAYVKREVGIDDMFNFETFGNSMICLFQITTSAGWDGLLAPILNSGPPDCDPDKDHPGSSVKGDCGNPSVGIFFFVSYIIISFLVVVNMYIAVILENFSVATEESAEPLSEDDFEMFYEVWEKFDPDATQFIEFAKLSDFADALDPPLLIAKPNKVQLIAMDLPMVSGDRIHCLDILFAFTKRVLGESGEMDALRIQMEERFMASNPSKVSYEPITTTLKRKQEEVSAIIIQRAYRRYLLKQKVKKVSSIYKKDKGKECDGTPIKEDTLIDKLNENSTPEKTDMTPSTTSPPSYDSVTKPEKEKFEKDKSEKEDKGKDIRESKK

Male C57BL/6 mice = assay: Mouse MPTP induced neurotoxicity (striatal dopamine depletion); assay type: in vivo; conditions: 30 minutes before each MPTP injection, striata seven days after MPTP
Method: The mouse MPTP model is generally used as a model of Parkinson's disease.
Male C57BL/6 mice received four intraperitoneal injections of MPTP.HCl (15 mg of free base per kg; Research Biochemicals) in saline at 2 hour intervals. Control mice received saline only. The test-compound was administered as four subcutaneous injections in olive oil at 2 hour intervals, 30 minutes before each MPTP injection.
Seven days after MPTP injection the mice were sacrificed and the striata dissected out, immediately frozen, and stored at −80° C. until analysis. On the day of assay issue samples were sonicated in 10 volume (wt./vol.) of 0.1 M perchloric acid containing 1.9 mM sodium hydrosulfite and 1.6 mg/ml DBA-HBr. After centrifugation (2800 g, 10 min at room temperature) and filtration (pore size 0.5 μm, Millipore), the supernatant was transferred to a vial and placed in the automatic sampler (M231XL, Gilson). Dopamine content was measured by high performance liquid chromatography. A compound of formula (I) produced 75% protection against dopamine depletion when dosed at 3 mg/kg (×4) and 98% protection when dosed at 10 mg/kg (×4).

mouse = assay: Mouse pentylenetetrazol infusion test; assay type: in vivo; conditions: 1 h, read-out: ED50 in pentylenetetrazol infusion test (time to second twitch)

Row | Compound | ED50 (male Han Wistar rats) [mg/kg] | therapeutic index (ratio of the ataxia ED50 and MES ED50) (male Han Wistar rats) | reduction in paw volume (anti-inflammatory activity) (rat; 30 mg/kg, 30 minutes prior to carrageenan) [%] | ED50 (rat) [mg/kg] | IC50 [1] [µM] | state selectivity (potency at inactivated state versus resting state) [1] | protection against dopamine depletion (Male C57BL/6 mice; 3 mg/kg (×4) subcutaneous) [%] | protection against dopamine depletion (Male C57BL/6 mice; 10 mg/kg (×4) subcutaneous) [%] | ED50 (mouse) [mg/kg]
1 | Nc1ncnnc1-c1cc(Cl)cc(Cl)c1Cl [compound of formula (I), 5-amino-6-[2,3,5-trichlorophenyl]-1,2,4-triazine] | 1.7 | 23.7 | 50 | 7.5 | 785 | approximately 70 fold | 75 | 98 | 3.8
2 | Nc1nnc(-c2cccc(Cl)c2Cl)c(N)n1 [lamotrigine, 3,5diamino-6-(2,3dichlorophenyl)-1,2,4-triazine, reference compound] | 6.1 | 3.3 | – | 23.5 | – | approximately 30 fold | – | – | 8.4
